Laboratory results: US20100168016A1, “DIAGNOSIS AND TREATMENT OF DISEASES CAUSED BY MISFOLDED PROTEINS” (THE JACKSON LABORATORY, priority 2007, published 2010)
Residues, ends and D or L forms follow the SMILES beside them. *: point of attachment. Cbz = O=C(OCc1ccccc1)*

Assays:
[1] = system: HA-ANKRD16^CAST-transfected COS-7 cells; test: subcellular localization of ANKRD16 in transfected COS-7 cells; type: cell-based, monkey; details: for relocalization of ANKRD16: 10 μM MG132 or 10 μM epoximicin or 3-MA, 24 hours after transfection, within 12 hours of treatment
Description: Cellular localization of full-length ANKRD16 was determined by transfection of epitope-tagged full-length ANKRD16^CAST into monkey kidney fibroblast COS-7 cells and human alveolar epithelial A549 cells. The ANKRD16 coding sequence was amplified by polymerase chain reaction from cDNA by using Pfu DNA polymerase (Stratagene), purified by agarose gel electrophoresis and ligated in-frame with the HA-tag into the pcDNA3 vector. This clone encoded a fusion ANKRD16 with the tag at its C-terminus. All DNA constructs were confirmed by sequencing. COS-7 and A549 cells were maintained in Dulbecco's modified Eagle's medium (Sigma-Aldrich). All cells were grown at 37° C. in 5% CO2 and supplemented with 10% (vol/vol) fetal calf serum, 100 U/ml penicillin and 100 μg/ml streptomycin. Transfections were performed using Lipofectamine 2000 transfection reagent (Invitrogen, USA) according to the manufacturer's protocol. Cells were cultured for 48 h after transfection.
To determine if the induction of autophagy changes the intracellular localization of ANKRD16, we treated transfected cells with rapamycin to induce macroautophagy (data not shown) or performed serum starvation experiments (known to induce chaperone-mediated autophagy after 18 hours) on transfected cells (data not shown). COS-7 cells were transfected with full-length HA-ANKRD16^CAST constructs. […] Nor was co-localization observed with endosome, autophagosome or lysosome markers (data not shown) in the presence or absence of rapamycin or proteasome inhibitors administered as described below.
Several proteins that regulate protein folding and/or the disposal of misfolded proteins are induced or change their subcellular localization in response to misfolded protein stress. To examine if subcellular localization changes with intracellular accumulation of misfolded proteins, we treated full-length HA-ANKRD16^CAST-transfected COS-7 cells 24 hours after transfection with proteosome inhibitors, 10 μM MG132 (Sigma-Aldrich) or 10 μM epoximicin (Sigma-Aldrich) or blocked autophagy with 3-methyladenine (3-MA; Sigma-Aldrich). […]
For immunostaining the cells were fixed with 4% paraformaldehyde (PFA) at room temperature for 5 min, then incubated with anti-ubiquitin, anti-HA, anti-r-tubulin, and anti-vimentin antibodies overnight at 4° C. […] The fluorescence was detected under a fluorescence microscope.

[2] = system: mouse embryonic fibroblasts from CASTEi/J mice; test: aggresome localization of ANKRD16 in fibroblasts under proteasomal stress; type: cell-based; details: 1 μM epoximicin for 18 hours
Description: Mouse embryonic fibroblasts were isolated from CASTEi/J mice. To isolate embryonic fibroblasts, CASTEi/J mice were paired for time of pregnancy. E13.5 day pregnant female mice for each of the strains were sacrificed. The time point E0.5 is the morning of finding a plug after pairing a female with a male. The uteri were removed and placed into a dish with PBS and washed. The embryos were isolated free of extraembryonic tissue and washed in PBS. Each embryo was placed into a separate 14 ml tube containing 3 ml of media (DMEM, 10% FBS) and homogenized for 2 seconds. The homogenized tissues were put into 145 mm tissue culture plates (e.g. CellStar from USA Scientific cat.#5663-9160) containing 20 ml of media (DMEM, 10% FBS). The cells were incubated at 37° C. in 5% CO2 until cells were confluent, which was on average from 5 to 7 days. The cells were expanded according to standard tissue culture methods using trypsin and the same passage number for each cell line was used for the experiment. To stress the fibroblast they were treated for 18 hours with 1 μM epoximicin, a proteosome inhibitor (Genaxxon). Then untreated and treated cells were fixed, visualized for ANKRD16 expression using indirect immunofluorescence with polyclonal ANKRD16 rabbit antibody as primary antibody and Alexa555-conjugated anti-rabbit IgG (Invitrogen, Molecular Probes) as secondary antibody. […]

SMILES	relocalization of ANKRD16 [1]	localization of ANKRD16 [2]	formation of the aggresome structure ([1]; 10 μg/ml nocodazole)
Cn1cnc(N)c2ncnc1-2 [3-methyladenine]	Relocalization of ANKRD16 to a juxtanuclear structure	–	–
CC(C)C[C@@H](C=O)NC(=O)[C@H](CC(C)C)NC(=O)[C@H](CC(C)C)NC(=O)OCc1ccccc1 [MG132] (Cbz-Leu-Leu-Leu-aldehyde)	Relocalization of ANKRD16 to a juxtanuclear structure	–	–
CC[C@H](C)[C@H](NC(=O)[C@H]([C@@H](C)CC)N(C)C(C)=O)C(=O)N[C@H](C(=O)N[C@@H](CC(C)C)C(=O)[C@@]1(C)CO1)[C@@H](C)O [epoximicin]	Relocalization of ANKRD16 to a juxtanuclear structure	relocalized to the aggresome	–
COC(=O)Nc1nc2ccc(C(=O)c3cccs3)cc2[nH]1 [nocodazole]	–	–	disrupted
